Data from patent US20220331237A1, “DEVICE, METHODS AND USES FOR TREATING ANAPHYLAXIS” (1232176 B.C. Ltd., priority 2021, published 2022).
Like-named read-outs stand apart in the source and are kept apart here.

Assays:
[1] = tested on: grade 2 or higher acute allergic reaction
Text: Institutional Review Board approval was obtained for the study and informed consent was obtained from study participants.

[2] = Method: Briefly, a Next Generation Impactor (Model 170 NGI; Copley) was used to capture dose exiting a regular non-sectioned AIT (used here to minimize assay steps) at an inhalation flowrate of 30 L/min. Interior surfaces of the AIT and the impaction plates within the NGI were coated with silicone grease (Molykote 316; Dow Corning) prior to testing. […] Following actuation, the AIT was washed twice with 10 mL of 0.1 N HCl, while each plate of the NGI was washed once with 5 mL of 0.1 N HCl. Samples were assayed via UV spectroscopy at the absorbance maximum of 279 nm, as discussed above.
Tests were performed using the 0.22 mm actuator orifice with Primatene Mist HFA. Both transverse and coaxial insertion angles were used, with three repeated measures taken at each orientation. Particle size distributions were characterized via calculation of the mass median aerodynamic diameter (MMAD) and geometric standard deviation (GSD) via linear interpolation (e.g., Hinds W C. 2nd ed. Hoboken, N.J.: Wiley; 1999). A validated regional lung deposition model (e.g., Javaheri et al., J Aerosol Sci. 2013, 64:81-93 and Finlay et al., Lung Delivery of Aerosolized Dextran. 2000, 161:91-7) was used to estimate tracheobronchial and alveolar deposition from the measured particle size distributions under a simulated breath with an inhaled volume of 3.0 L, inhalation flowrate of 30 L/min, a pause between inhalation of (i) 0 or (ii) 10 seconds, and exhalation flowrate of 30 L/min.

[3] = Commercial actuator, previously reported, cited from earlier work
[4] = 0.22 mm actuator orifice, unaffected by insertion angle
[5] = 0.22 mm actuator, Coaxial, 30 L/min
[6] = 0.22 mm actuator, Transverse, 30 L/min

Which results are given for `CNCC(O)c1ccc(O)c(O)c1` (stereo not drawn) [epinephrine, 4-(1-hydroxy-2-(methylamino)ethyl)benzene-1,2-diol]?
Tachycardia ([1]; Patient 1, 4 puffs given): Yes; Time to Resolution of Allergic Reaction After Treatment Initiated ([1]; Patient 1, 4 puffs given): 3 min; Tremors ([1]; Patient 1, 4 puffs given): Yes; Tachycardia ([1]; Patient 2, 4 puffs given): Yes; Time to Resolution of Allergic Reaction After Treatment Initiated ([1]; Patient 2, 4 puffs given): within 2 mins; Tremors ([1]; Patient 2, 4 puffs given): Yes; Tachycardia ([1]; Patient 3, 4 puffs given): Yes; Time to Resolution of Allergic Reaction After Treatment Initiated ([1]; Patient 3, 4 puffs given): 0.5 min; Tremors ([1]; Patient 3, 4 puffs given): Yes; Tachycardia ([1]; Patient 4, 2 puffs given): Yes; Time to Resolution of Allergic Reaction After Treatment Initiated ([1]; Patient 4, 2 puffs given): 1 min; Tremors ([1]; Patient 4, 2 puffs given): Yes; Tachycardia ([1]; Patient 5, 6 puffs given): Yes; Time to Resolution of Allergic Reaction After Treatment Initiated ([1]; Patient 5, 6 puffs given): 6 min; Tremors ([1]; Patient 5, 6 puffs given): Yes; Tachycardia ([1]; Patient 6, 9 puffs given): Yes; Tremors ([1]; Patient 6, 9 puffs given): Yes; Time to Resolution of Allergic Reaction After Treatment Initiated ([1]; Patient 6, 9 puffs given, entry runs on: resolved after 5 puffs, but recurred after 5 mins): resolved after 5; Time to recurrence of allergic reaction after resolution ([1]; Patient 6, 9 puffs given, resolved after 5 puffs): after 5 mins; Tachycardia ([1]; Patient 7, 2 puffs given): Yes; Time to Resolution of Allergic Reaction After Treatment Initiated ([1]; Patient 7, 2 puffs given): 2 min; Tremors ([1]; Patient 7, 2 puffs given): Yes; Tachycardia ([1]; Patient 8, 2 puffs given): Yes; Time to Resolution of Allergic Reaction After Treatment Initiated ([1]; Patient 8, 2 puffs given): 1 min; Tremors ([1]; Patient 8, 2 puffs given): Yes; Tachycardia ([1]; Patient 9, 2 puffs given): Yes; Time to Resolution of Allergic Reaction After Treatment Initiated ([1]; Patient 9, 2 puffs given): 1 min; Tremors ([1]; Patient 9, 2 puffs given): Yes; Tachycardia ([1]; Patient 10, 5 puffs given): Yes; Time to Resolution of Allergic Reaction After Treatment Initiated ([1]; Patient 10, 5 puffs given): 1 min; Tremors ([1]; Patient 10, 5 puffs given): Yes; Tachycardia ([1]; Patient 11, 2 puffs given): Yes; Tremors ([1]; Patient 11, 2 puffs given): Yes; Tachycardia ([1]; Patient 12, 2 puffs given): Yes; Time to Resolution of Allergic Reaction After Treatment Initiated ([1]; Patient 12, 2 puffs given): 1 min; Tremors ([1]; Patient 12, 2 puffs given): Yes; Tachycardia ([1]; Patient 13, 2 puffs given): Yes; Time to Resolution of Allergic Reaction After Treatment Initiated ([1]; Patient 13, 2 puffs given): 1 min; Tremors ([1]; Patient 13, 2 puffs given): Yes; Tachycardia ([1]; Patient 14, 2 puffs given): Yes; Time to Resolution of Allergic Reaction After Treatment Initiated ([1]; Patient 14, 2 puffs given): 1 min; Tremors ([1]; Patient 14, 2 puffs given): Yes; Tachycardia ([1]; Patient 15, 6 puffs given): Yes; Time to Resolution of Allergic Reaction After Treatment Initiated ([1]; Patient 15, 6 puffs given): 4 min; Tremors ([1]; Patient 15, 6 puffs given): Yes; Tachycardia ([1]; Patient 16, 4 puffs given): Yes; Time to Resolution of Allergic Reaction After Treatment Initiated ([1]; Patient 16, 4 puffs given): 1.5 min; Tremors ([1]; Patient 16, 4 puffs given): Yes; Tachycardia ([1]; Patient 17, 3 puffs given): Yes; Time to Resolution of Allergic Reaction After Treatment Initiated ([1]; Patient 17, 3 puffs given): 1.5 min; Tremors ([1]; Patient 17, 3 puffs given): Yes; Tachycardia ([1]; Patient 18, 2 puffs given): Yes; Time to Resolution of Allergic Reaction After Treatment Initiated ([1]; Patient 18, 2 puffs given): within 30 secs; Tremors ([1]; Patient 18, 2 puffs given): Yes; Tachycardia ([1]; Patient 19, 4 + 2 puffs given): Yes; Time to recurrence of allergic reaction after resolution ([1]; Patient 19, 4 + 2 puffs given): after 10 mins, then; Tremors ([1]; Patient 19, 4 + 2 puffs given): Yes; Time to resolution of the recurred allergic reaction ([1]; Patient 19, 4 + 2 puffs given, after recurrence): resolved in 1 min; Time to Resolution of Allergic Reaction After Treatment Initiated ([1]; Patient 19, 4 + 2 puffs given, initial resolution): 1 minute, recurred; Need for treatment with intramuscular epinephrine ([1]; all study participants): No study participants required treatment with intramuscular epinephrine; Resolution of clinical symptoms (laryngopharyngeal and systemic) ([1]; all study participants, Primatene Mist HFA via Bespak BK633 actuator (0.22 mm)): prompt resolution of clinical symptoms; Recurrence of symptoms after initial resolution ([1]; all study participants, further doses of oral inhaled epinephrine given): In two instances symptoms recurred after initial resolution and again resolved promptly; GSD [2, 4]: ~1.63; MMAD [2, 4]: approximately 2 μm; Deposition, NGI Stage 1 [2, 5]: 1.9 µg; Deposition, NGI Stage 2 [2, 5]: 1.9 µg; Deposition, NGI Stage 3 [2, 5]: 8.5 µg; Deposition, NGI Stage 4 [2, 5]: 82.6 µg; Deposition, NGI Stage 5 [2, 5]: 122.2 µg; Deposition, NGI Stage 6 [2, 5]: 42.0 µg; Deposition, NGI Stage 7 [2, 5]: 7.6 µg; Deposition, NGI Stage 8 [2, 5]: 0.0 µg; Deposition, Throat [2, 5]: 78.6 µg; Deposition, Total Recovered [2, 5]: 345.2 µg; MMAD (mass median aerodynamic diameter) [2, 5]: 2.00 μm; Deposition, NGI Stage 1 [2, 6]: 1.5 µg; Deposition, NGI Stage 2 [2, 6]: 1.4 µg; Deposition, NGI Stage 3 [2, 6]: 8.8 µg; Deposition, NGI Stage 4 [2, 6]: 80.8 µg; Deposition, NGI Stage 5 [2, 6]: 121.7 µg; Deposition, NGI Stage 6 [2, 6]: 43.6 µg; Deposition, NGI Stage 7 [2, 6]: 9.5 µg; Deposition, NGI Stage 8 [2, 6]: 0.0 µg; Deposition, Throat [2, 6]: 95.8 µg; Deposition, Total Recovered [2, 6]: 363.0 µg; MMAD (mass median aerodynamic diameter) [2, 6]: 1.98 μm; MMAD (mass median aerodynamic diameter) ([2]; Commercial actuator, Coaxial, calculated here from previously reported deposition): 2.05 μm; MMAD (mass median aerodynamic diameter) ([2]; Commercial actuator, Transverse, calculated here from previously reported deposition): 1.93 μm; Deposition, NGI Stage 1 ([3]; Coaxial): 2.1 µg; Deposition, NGI Stage 2 ([3]; Coaxial): 2.5 µg; Deposition, NGI Stage 3 ([3]; Coaxial): 11.1 µg; Deposition, NGI Stage 4 ([3]; Coaxial): 72.9 µg; Deposition, NGI Stage 5 ([3]; Coaxial): 99.1 µg; Deposition, NGI Stage 6 ([3]; Coaxial): 34.1 µg; Deposition, NGI Stage 7 ([3]; Coaxial): 6.3 µg; Deposition, NGI Stage 8 ([3]; Coaxial): 0.0 µg; Deposition, Throat ([3]; Coaxial): 136.3 µg; Deposition, Total Recovered ([3]; Coaxial): 364.3 µg; Deposition, NGI Stage 1 ([3]; Transverse): 0.8 µg; Deposition, NGI Stage 2 ([3]; Transverse): 1.1 µg; Deposition, NGI Stage 3 ([3]; Transverse): 6.8 µg; Deposition, NGI Stage 4 ([3]; Transverse): 56.0 µg; Deposition, NGI Stage 5 ([3]; Transverse): 96.8 µg; Deposition, NGI Stage 6 ([3]; Transverse): 37.7 µg; Deposition, NGI Stage 7 ([3]; Transverse): 6.6 µg; Deposition, NGI Stage 8 ([3]; Transverse): 0.0 µg; Deposition, Throat ([3]; Transverse): 212.9 µg; Deposition, Total Recovered ([3]; Transverse): 418.8 µg
